The target of one data set is Cytochrome P450 2D6 (Homo sapiens, UniProt P10635).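 Further: CYP2D6 member of a cytochrome P450 panel assay.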
The target of data set [1] is Voltage-gated inwardly rectifying potassium channel KCNH2 (Homo sapiens, UniProt Q12809). The data set can be described thus: concentration-dependent hERG rescue from blockers – cell-based, thallium flux, dose response (AID 2121). Format: ADME. For orientation: Block of hERG is tested as a sign of cardiac risk.
The next data set deals with T1, Protein RecA (Mycobacterium tuberculosis, UniProt P9WHJ3).
T1 sequence (P9WHJ3 whole entry): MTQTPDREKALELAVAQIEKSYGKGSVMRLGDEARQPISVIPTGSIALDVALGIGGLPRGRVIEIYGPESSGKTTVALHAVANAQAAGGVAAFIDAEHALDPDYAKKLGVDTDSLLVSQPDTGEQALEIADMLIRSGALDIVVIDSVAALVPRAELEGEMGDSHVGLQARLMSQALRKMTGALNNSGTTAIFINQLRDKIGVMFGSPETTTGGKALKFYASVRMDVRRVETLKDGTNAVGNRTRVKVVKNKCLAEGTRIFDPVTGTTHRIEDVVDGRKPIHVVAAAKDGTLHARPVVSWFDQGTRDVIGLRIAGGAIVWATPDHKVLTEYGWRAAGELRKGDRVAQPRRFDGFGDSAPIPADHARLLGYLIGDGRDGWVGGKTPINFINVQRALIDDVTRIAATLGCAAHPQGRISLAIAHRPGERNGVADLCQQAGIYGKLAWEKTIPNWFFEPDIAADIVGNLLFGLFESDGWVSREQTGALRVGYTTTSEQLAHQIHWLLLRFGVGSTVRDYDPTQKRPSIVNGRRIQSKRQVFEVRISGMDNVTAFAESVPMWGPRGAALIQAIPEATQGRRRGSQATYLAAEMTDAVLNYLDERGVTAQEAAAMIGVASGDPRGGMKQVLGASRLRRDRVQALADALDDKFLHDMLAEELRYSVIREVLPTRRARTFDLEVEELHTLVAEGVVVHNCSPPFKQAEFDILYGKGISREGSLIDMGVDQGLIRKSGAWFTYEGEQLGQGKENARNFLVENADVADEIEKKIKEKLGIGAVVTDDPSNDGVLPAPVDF
The data set can be described thus: Fluorescence Cell-Free Homogeneous Dose Retest to Identify Inhibitors of RecA-Intein Splicing Activity. [Related pubchem assays (depositor defined):AID2097, AID2223, AID489010, AID492950]. Format: functional.

Data set [2] addresses T2, Replicative DNA helicase DnaB (Mycobacterium tuberculosis, UniProt P9WMR3).
T2 sequence (P9WMR3 whole entry): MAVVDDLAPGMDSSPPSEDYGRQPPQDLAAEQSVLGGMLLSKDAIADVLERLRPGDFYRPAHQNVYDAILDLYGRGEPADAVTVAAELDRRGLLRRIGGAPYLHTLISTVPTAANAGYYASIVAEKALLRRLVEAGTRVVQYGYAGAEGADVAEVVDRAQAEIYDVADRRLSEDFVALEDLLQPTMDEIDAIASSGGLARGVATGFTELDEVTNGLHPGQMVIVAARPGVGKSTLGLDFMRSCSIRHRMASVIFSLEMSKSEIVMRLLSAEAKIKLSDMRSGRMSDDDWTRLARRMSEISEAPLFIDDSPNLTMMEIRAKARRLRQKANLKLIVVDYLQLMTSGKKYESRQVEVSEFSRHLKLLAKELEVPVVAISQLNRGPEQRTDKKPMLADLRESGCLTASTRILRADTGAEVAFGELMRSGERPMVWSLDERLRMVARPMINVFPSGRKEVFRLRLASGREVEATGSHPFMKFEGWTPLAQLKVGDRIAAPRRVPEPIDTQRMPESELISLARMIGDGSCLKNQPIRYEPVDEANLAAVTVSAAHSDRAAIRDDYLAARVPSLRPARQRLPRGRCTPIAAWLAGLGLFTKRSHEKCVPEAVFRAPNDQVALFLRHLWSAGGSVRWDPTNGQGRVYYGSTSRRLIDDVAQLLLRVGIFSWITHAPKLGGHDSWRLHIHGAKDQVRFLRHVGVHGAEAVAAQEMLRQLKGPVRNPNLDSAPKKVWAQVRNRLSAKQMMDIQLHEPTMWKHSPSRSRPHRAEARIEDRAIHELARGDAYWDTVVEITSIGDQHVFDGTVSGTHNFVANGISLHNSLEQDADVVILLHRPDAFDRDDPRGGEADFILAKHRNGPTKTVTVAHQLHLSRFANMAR
Nature of the data set: DnaB intein splicing inhibitors, dose response, biochemical, cell-free fluorescence (AID 449749). It counts as functional.

A short description of data set [3]: Luminescence Cell-Based Dose Response to Identify Activators of Luciferase Translation or Activity in H4-C Neuroglioblastoma Cells. [Related pubchem assays: 1829 (Project Summary), 1814 (Primary HTS)]. It counts as functional.
A further data set deals with Cytochrome P450 2C9 (Homo sapiens, UniProt P11712).
A short description of data set [4]: Luminescence Cell-Based Dose Response HTS to Identify Activators of Luciferase Translation or Activity in H4 […] Cells. [Related pubchem assays: 1829 (Project Summary), 1814 (Primary HTS)]. It counts as functional.
Another data set addresses T3, Estrogen receptor (Homo sapiens, UniProt P03372).
T3 sequence (P03372 whole entry): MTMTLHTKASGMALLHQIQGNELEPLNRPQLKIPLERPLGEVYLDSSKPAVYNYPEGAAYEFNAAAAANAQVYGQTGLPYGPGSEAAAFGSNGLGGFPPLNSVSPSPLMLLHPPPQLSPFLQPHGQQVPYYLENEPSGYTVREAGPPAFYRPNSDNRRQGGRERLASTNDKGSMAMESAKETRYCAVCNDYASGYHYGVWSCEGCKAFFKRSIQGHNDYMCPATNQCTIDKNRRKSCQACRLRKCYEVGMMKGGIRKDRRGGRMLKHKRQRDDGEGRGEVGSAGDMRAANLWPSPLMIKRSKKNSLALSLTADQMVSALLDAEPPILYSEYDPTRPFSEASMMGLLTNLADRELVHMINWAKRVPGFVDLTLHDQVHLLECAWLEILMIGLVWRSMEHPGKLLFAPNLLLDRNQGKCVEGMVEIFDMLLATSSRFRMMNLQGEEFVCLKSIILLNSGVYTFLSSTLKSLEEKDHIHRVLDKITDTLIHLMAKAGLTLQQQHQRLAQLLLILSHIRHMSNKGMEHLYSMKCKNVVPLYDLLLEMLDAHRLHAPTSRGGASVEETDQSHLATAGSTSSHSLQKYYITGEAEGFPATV

A further data set addresses Cytochrome P450 2C19 (Homo sapiens, UniProt P33261). Nature of the data set: Cytochrome panel assay with activity outcomes. Panel member name: p450-cyp2c19 Compounds with AC50 equal or less than 10 uM are considered active. Format: functional. Conditions: read-out: AC50.
The target of the next data set is T4, Cytochrome P450 1A2 (Homo sapiens, UniProt P05177).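 Further: PubChem cytochrome P450 panel assay, CYP1A2 panel member.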
T4 sequence (P05177 whole entry): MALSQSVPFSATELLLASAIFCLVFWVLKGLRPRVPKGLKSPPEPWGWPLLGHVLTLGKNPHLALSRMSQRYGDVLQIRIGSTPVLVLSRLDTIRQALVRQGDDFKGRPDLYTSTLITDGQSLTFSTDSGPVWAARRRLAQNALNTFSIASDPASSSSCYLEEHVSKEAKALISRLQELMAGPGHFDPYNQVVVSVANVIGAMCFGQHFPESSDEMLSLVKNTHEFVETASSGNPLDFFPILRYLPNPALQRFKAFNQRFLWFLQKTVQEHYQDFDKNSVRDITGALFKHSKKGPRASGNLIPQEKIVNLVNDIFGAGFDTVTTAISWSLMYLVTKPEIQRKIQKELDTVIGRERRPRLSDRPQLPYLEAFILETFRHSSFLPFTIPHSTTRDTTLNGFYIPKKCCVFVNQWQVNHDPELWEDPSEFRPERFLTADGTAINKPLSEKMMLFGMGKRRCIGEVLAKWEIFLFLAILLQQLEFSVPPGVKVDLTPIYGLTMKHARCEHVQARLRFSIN

Data set [5] can be described thus: Luminescence Cell-Based Dose Retest to Confirm Inhibitors of Cancer Stem Cells. [Related pubchem assays (depositor defined):AID2717, AID2721]. Format: functional. Conditions: Homo sapiens.
Data set [6] in a line: Luminescence Cell-Based Dose Response to Identify Activators of 5'UTR Stem-Loop Driven Prion Protein mRNA Translation in H4-C Neuroglioblastoma Cells. [Related pubchem assays: 1829 (Project Summary), 1814 (Primary HTS)]. It counts as functional.
For another data set, the system named is H4. Nature of the data set: Luminescence Cell-Based Dose Response HTS to Identify Activators of 5'UTR Stem-Loop Driven Prion Protein mRNA Translation in H4 Neuroglioblastoma Cells. [Related pubchem assays: 1829 (Project Summary), 1814 (Primary HTS)]. It counts as functional. The settings on record: Homo sapiens.
Data set [7] is described as follows: Luminescence Cell-Based Dose Confirmation to Identify Activators of 5'UTR Stem-Loop Driven Alpha-Synuclein mRNA Translation in H4 Neuroglioblastoma Cells. [Related pubchem assays: 1829 (Project Summary), 1814 (Primary HTS)]. It counts as functional.
The subject of the next data set is Vero. The data set can be described thus: mammalian cell viability reduction – secondary assay, cytotoxicity control for West Nile virus antiviral project, dose response (AID 1650). Conditions: Chlorocebus sabaeus. It counts as functional.
The nature of data set [8]: viability loss in Vero cells – cytotoxicity control for Vif-APOBEC3G degradation inhibitor project, dose response (AID 1117358). Conditions: Vero. It counts as functional.
The target of data set [9] is T5, Apoptotic protease-activating factor 1 (Homo sapiens, UniProt O14727).
T5 sequence (O14727 whole entry): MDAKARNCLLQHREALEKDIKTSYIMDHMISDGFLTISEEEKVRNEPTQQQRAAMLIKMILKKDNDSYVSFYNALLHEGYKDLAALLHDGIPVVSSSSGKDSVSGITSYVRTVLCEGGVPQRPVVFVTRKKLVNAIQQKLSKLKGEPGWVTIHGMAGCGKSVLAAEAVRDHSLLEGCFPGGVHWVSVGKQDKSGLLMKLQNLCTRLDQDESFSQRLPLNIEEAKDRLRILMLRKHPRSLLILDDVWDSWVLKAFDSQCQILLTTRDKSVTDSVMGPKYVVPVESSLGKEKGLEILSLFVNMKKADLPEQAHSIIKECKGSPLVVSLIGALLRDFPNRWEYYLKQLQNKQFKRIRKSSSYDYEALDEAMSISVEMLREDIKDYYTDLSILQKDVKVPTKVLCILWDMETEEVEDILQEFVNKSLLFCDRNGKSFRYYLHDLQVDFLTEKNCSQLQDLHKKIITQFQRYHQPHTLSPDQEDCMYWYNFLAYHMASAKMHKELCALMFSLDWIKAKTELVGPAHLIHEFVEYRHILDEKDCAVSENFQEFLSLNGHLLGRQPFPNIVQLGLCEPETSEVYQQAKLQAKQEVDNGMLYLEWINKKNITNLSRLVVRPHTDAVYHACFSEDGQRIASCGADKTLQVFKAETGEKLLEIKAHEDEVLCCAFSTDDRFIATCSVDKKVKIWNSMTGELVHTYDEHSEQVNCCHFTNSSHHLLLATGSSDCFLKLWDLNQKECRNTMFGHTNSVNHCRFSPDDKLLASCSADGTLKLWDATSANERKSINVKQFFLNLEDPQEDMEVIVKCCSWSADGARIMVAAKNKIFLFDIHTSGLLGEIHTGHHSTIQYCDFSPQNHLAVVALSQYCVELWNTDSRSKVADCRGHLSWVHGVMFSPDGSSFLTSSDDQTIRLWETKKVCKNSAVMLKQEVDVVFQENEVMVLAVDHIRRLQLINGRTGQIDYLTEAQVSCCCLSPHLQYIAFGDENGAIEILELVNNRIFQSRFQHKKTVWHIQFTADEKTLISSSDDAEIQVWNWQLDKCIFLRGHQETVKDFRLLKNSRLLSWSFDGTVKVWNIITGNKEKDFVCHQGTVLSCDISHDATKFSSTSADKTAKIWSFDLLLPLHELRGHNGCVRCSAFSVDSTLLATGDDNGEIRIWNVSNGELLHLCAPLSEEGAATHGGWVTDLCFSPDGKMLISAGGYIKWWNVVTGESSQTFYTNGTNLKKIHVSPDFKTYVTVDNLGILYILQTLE
Format: functional.

Data set [10] has as its target Serine/threonine-protein phosphatase PP1-alpha catalytic subunit (Homo sapiens, UniProt P62136). Nature of the data set: inhibition of protein phosphatase 1 activity – biochemical, fluorescence, dose response (AID 2394).
Data set [11] concerns the target Glucose-6-phosphate 1-dehydrogenase (Homo sapiens, UniProt P11413). Nature of the data set: inhibition of Homo sapiens G6PD, dose series – biochemical, fluorescence, selectivity assay for P. falciparum G6PD inhibitor project, dose response (AID 504792). It counts as functional.
The target in data set [12] is Serine/threonine-protein phosphatase (Homo sapiens, UniProt Q9BPW0). Nature of the data set: inhibition of protein phosphatase 5 activity – biochemical, fluorescence, dose response (AID 2395).
A further data set addresses Genome polyprotein (dengue virus type 2, UniProt P29990). Nature of the data set: flavivirus cap methylation enzyme inhibition – biochemical, confirmation dose response, primary screen (AID 588689). It counts as functional.

Calls of active or inactive are those of the source. Bounds are passed on as bounds.

Chain of Cytochrome P450 2C19 (P33261 whole entry): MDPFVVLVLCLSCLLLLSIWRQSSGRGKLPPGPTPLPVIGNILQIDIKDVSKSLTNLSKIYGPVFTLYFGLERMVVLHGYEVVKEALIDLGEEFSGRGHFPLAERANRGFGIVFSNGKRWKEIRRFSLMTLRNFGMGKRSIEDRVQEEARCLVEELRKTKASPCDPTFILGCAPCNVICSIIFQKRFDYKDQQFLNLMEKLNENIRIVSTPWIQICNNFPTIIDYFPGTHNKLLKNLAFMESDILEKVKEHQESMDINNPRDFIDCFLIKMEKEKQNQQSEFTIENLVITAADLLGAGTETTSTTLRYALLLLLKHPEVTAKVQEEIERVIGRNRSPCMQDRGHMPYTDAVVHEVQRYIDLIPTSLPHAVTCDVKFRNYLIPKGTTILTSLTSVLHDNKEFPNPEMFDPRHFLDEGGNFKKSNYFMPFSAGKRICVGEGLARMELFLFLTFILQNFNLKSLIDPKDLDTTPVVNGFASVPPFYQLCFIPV
Chain of Cytochrome P450 2C9 (P11712 whole entry): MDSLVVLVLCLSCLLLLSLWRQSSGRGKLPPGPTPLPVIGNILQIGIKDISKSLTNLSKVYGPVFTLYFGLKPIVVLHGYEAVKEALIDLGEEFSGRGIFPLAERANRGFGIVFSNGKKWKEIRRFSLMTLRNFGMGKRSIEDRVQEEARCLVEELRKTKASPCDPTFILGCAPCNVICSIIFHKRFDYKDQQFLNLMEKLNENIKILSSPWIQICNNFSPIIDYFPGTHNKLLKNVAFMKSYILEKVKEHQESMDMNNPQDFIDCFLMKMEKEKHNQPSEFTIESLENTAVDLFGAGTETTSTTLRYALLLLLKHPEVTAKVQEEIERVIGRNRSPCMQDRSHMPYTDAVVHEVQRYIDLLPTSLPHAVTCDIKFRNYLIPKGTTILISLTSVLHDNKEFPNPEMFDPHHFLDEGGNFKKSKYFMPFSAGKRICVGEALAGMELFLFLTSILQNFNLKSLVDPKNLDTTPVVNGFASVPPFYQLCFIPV
Chain of Cytochrome P450 2D6 (P10635 whole entry): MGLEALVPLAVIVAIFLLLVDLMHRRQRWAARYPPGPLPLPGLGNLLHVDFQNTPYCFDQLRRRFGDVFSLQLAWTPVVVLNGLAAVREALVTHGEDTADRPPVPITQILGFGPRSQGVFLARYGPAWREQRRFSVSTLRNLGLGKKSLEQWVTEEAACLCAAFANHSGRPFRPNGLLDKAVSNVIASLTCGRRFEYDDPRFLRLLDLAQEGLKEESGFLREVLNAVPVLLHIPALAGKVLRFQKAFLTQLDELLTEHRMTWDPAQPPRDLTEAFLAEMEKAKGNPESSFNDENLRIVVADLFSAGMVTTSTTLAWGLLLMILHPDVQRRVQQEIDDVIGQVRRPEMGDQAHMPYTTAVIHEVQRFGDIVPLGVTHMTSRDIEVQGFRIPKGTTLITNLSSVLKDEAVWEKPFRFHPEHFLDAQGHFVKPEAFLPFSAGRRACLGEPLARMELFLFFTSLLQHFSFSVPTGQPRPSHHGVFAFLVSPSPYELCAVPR
Chain of Genome polyprotein (P29990 2492-3391 limits assumed): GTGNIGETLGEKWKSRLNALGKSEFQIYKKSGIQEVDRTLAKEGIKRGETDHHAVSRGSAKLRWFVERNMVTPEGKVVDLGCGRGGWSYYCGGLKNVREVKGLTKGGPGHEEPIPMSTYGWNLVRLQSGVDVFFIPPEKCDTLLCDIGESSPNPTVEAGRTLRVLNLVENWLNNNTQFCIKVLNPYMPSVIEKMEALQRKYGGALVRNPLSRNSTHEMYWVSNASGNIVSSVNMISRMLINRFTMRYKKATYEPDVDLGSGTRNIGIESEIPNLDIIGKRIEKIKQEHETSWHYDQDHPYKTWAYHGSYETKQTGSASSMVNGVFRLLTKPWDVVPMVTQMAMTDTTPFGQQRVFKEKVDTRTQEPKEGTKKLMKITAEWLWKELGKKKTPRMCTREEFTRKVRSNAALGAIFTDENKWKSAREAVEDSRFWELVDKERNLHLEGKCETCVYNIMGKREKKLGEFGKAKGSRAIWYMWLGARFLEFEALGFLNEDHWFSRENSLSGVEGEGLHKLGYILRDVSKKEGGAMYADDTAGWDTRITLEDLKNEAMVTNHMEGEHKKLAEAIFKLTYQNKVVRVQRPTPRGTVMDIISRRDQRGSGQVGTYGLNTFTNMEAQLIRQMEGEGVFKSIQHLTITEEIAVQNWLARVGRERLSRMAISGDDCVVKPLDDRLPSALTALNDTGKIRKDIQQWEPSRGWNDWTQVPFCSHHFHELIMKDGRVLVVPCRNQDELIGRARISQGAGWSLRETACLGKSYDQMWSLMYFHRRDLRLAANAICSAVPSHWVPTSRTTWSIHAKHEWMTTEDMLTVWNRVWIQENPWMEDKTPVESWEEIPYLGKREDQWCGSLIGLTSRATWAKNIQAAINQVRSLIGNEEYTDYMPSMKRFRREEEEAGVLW
Chain of Voltage-gated inwardly rectifying potassium channel KCNH2 (Q12809 whole entry): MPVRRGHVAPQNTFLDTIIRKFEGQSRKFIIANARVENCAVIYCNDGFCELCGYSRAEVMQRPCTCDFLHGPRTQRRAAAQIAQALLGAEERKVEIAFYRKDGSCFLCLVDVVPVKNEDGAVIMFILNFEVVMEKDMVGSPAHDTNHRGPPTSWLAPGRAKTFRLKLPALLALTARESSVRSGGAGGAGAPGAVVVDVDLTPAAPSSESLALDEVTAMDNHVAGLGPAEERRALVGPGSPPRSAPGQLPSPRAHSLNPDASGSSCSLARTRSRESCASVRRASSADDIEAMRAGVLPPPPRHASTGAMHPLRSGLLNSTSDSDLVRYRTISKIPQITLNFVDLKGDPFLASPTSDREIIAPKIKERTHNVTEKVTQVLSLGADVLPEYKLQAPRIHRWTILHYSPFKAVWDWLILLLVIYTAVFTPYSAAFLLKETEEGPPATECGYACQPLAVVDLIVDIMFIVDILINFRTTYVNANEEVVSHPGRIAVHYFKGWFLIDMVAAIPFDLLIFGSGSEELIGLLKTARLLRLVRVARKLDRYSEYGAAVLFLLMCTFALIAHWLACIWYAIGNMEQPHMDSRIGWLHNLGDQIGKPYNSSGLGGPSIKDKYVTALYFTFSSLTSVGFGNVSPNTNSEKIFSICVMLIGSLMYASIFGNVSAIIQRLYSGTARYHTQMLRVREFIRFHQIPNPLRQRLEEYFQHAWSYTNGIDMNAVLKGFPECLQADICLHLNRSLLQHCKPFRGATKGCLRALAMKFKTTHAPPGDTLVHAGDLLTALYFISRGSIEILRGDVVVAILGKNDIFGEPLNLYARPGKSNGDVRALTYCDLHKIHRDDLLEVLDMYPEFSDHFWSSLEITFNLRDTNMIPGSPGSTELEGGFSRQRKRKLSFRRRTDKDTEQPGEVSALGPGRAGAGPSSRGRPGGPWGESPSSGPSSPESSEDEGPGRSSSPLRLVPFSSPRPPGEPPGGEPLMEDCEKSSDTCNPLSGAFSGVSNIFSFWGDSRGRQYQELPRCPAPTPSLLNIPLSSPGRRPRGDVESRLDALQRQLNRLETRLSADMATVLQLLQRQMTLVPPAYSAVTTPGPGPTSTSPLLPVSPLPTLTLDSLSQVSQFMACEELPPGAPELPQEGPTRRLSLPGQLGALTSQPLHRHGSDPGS
Chain of Serine/threonine-protein phosphatase (Q9BPW0 whole entry): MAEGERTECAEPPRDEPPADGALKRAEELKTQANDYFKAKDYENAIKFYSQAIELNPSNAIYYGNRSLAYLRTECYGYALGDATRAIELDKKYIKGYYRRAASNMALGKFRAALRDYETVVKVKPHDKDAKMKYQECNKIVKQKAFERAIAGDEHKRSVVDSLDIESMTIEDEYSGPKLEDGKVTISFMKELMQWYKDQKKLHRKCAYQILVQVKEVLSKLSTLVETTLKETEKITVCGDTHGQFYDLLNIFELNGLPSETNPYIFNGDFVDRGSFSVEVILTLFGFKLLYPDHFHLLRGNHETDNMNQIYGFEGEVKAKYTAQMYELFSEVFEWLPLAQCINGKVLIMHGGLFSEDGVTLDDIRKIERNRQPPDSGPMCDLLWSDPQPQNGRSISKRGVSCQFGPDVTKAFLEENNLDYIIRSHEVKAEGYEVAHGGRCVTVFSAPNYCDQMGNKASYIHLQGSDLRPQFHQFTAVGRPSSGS
Chain of Glucose-6-phosphate 1-dehydrogenase (P11413 whole entry): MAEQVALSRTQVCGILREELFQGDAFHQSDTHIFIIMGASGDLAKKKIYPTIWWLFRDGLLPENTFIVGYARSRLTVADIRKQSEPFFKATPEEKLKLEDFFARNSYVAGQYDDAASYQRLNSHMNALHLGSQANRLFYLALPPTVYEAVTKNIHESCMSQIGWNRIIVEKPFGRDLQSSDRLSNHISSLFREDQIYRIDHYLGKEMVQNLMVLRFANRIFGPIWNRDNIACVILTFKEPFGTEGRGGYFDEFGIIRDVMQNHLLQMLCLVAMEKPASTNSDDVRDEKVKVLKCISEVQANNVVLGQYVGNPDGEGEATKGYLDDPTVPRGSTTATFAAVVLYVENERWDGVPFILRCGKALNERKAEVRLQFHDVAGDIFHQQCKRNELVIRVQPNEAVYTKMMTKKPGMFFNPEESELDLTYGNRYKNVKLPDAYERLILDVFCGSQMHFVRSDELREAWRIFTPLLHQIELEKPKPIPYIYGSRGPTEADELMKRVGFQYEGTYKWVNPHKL
Chain of Serine/threonine-protein phosphatase PP1-alpha catalytic subunit (P62136 whole entry): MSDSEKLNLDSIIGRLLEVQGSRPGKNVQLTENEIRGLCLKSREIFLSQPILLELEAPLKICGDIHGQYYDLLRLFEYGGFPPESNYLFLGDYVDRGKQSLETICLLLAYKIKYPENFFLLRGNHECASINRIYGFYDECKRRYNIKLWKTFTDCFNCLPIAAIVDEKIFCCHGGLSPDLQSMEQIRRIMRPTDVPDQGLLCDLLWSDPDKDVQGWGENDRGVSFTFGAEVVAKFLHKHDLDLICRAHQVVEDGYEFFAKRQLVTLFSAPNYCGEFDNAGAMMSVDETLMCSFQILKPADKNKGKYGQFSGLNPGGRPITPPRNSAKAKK

With `CN1C(=O)/C(=N\OC(=O)c2cccc3ccccc23)c2ccccc21`, the results for the AC50 (at Cytochrome P450 2D6; in data set [2]) were 12.6 µM (inconclusive) and 7.38 µM (active), respectively. Besides, the EC50 (in general, the concentration at which the effect is half-maximal) is 1.17 µM (active) in data set [1] and 15 µM (active) at Protein RecA.
With `CCCc1cc2c(=O)c(-c3ccc4c(c3)OCCO4)coc2cc1OC(=O)c1ccco1`, the EC50 in data set [3] is 0.376 µM (active); in data set [4], < 0.1 µM (active); in data set [6], 0.306 µM (active); in the data set on H4 it was > 120 µM (not active); in data set [7], 0.388 µM (active). Besides, the AC50 (usually the concentration giving half of the maximal activity seen) on Cytochrome P450 2C9 was “inconclusive”; on Cytochrome P450 2C19, 2.51 µM (inconclusive); on Cytochrome P450 1A2 it was 2 µM (inconclusive); in data set [5], 3.85 µM (active). Also, the IC50 (usually the concentration at which inhibition is half-maximal) at Estrogen receptor is given as > 50 µM (not active).
In the case of `Cc1cc(C)n(Cc2ccc(NC(=O)c3nn(C)cc3[N+](=O)[O-])cc2)n1`, the CC50 (as a rule, the concentration giving 50% cytotoxicity) with Vero was 9.3 µM (active); in data set [8], 20.8 µM (active).
Turning to `COC(=O)CCC(=O)OC1(C)C(=O)C2=CN(C3CC3)C(c3ccc(OC)cc3)=CC2=C(Br)C1=O` (stereo unspecified), the IC50 was 22 µM (active) in data set [9]; 46.2 µM (not active) in [10]; 31.1 µM (inactive) in data set [11]; 8.96 µM (active) in data set [12]; > 100 µM (active) at Genome polyprotein.

For the origin of these results see ChEMBL document CHEMBL1201862, “PubChem BioAssay data set” (2004).
